Laboratory results: the NIST ThermoML archive (doi:10.1016/j.jct.2004.06.008)

Test: molar heat capacity at constant pressure
Details: 101.33 kPa, Crystal, Vacuum adiabatic calorimetry

[Cu] [copper]
Details | molar heat capacity at constant pressure [J/K/mol]
6.56 K | 0.0232
7.16 K | 0.0255
7.85 K | 0.0323
8.64 K | 0.04
9.55 K | 0.0534
10.51 K | 0.0663
11.42 K | 0.0839
12.43 K | 0.1121
13.56 K | 0.137
14.81 K | 0.1926
16.17 K | 0.2314
17.69 K | 0.304
19.34 K | 0.4106
20.19 K | 0.4727
21.13 K | 0.5555
21.94 K | 0.6242
23.08 K | 0.7448
23.76 K | 0.8181
25.79 K | 1.058
28.01 K | 1.37
30.46 K | 1.761
33.17 K | 2.259
36.05 K | 2.853
37.57 K | 3.173
39.01 K | 3.497
40.74 K | 3.898
44.1 K | 4.708
45.89 K | 5.146
47.52 K | 5.549
49.38 K | 6.025
52.99 K | 6.933
54.47 K | 7.281
56.65 K | 7.837
56.87 K | 7.882
59.76 K | 8.582
62.64 K | 9.272
66.47 K | 10.14
71.22 K | 11.16
75.97 K | 12.13
80.79 K | 13.04
85.65 K | 13.89
90.55 K | 14.68
95.49 K | 15.41
100.46 K | 16.08
105.45 K | 16.71
110.46 K | 17.28
115.49 K | 17.81
120.54 K | 18.3
125.61 K | 18.75
130.68 K | 19.16
134.74 K | 19.47
135.77 K | 19.54
139.84 K | 19.82
140.87 K | 19.89
144.94 K | 20.16
150.05 K | 20.46
155.17 K | 20.75
160.3 K | 21.02
165.43 K | 21.27
170.57 K | 21.5
175.7 K | 21.72
180.85 K | 21.92
186 K | 22.11
191.15 K | 22.28
193.33 K | 22.35
196.3 K | 22.45
198.48 K | 22.51
201.46 K | 22.6
203.64 K | 22.66
206.62 K | 22.74
208.8 K | 22.79
213.96 K | 22.93
219.13 K | 23.06
224.29 K | 23.19
229.45 K | 23.31
232.56 K | 23.38
234.62 K | 23.41
237.73 K | 23.49
239.79 K | 23.53
242.89 K | 23.59
248.06 K | 23.68
253.24 K | 23.77
258.41 K | 23.86
263.59 K | 23.95
268.77 K | 24.02
273.95 K | 24.09
279.13 K | 24.16
284.31 K | 24.23
289.49 K | 24.31
294.67 K | 24.38
297.38 K | 24.41
299.85 K | 24.44
302.55 K | 24.49
307.73 K | 24.55
312.92 K | 24.61
318.1 K | 24.67
323.28 K | 24.73
325.89 K | 24.75
328.47 K | 24.78
331.06 K | 24.8
336.25 K | 24.85
341.44 K | 24.91
346.62 K | 24.95
351.8 K | 24.99
356.99 K | 25.03
363.06 K | 25.07
368.04 K | 25.11
373.02 K | 25.17
378 K | 25.25
382.98 K | 25.25
387.96 K | 25.3
392.94 K | 25.35
397.62 K | 25.41
